From BigSolDB 2.1

O=C1OC(=O)[C@H]2[C@@H]1[C@@H]1C=C[C@H]2O1
solubility (mole fraction)
Conditions	278.15 K	283.15 K	288.15 K	293.15 K	298.15 K	303.15 K	308.15 K	313.15 K	318.15 K	323.15 K
in 1,4-dioxane	–	–	0.0238	0.0288	0.0342	0.0414	0.052	0.0647	0.0857	0.134
in DMF	0.106	0.117	0.126	0.138	0.15	0.164	0.181	0.192	0.218	0.238
in NMP	0.133	0.144	0.155	0.17	0.184	0.199	0.211	0.235	0.256	0.277
in acetone	0.038	0.0434	0.0483	0.0556	0.0629	0.0717	0.0818	0.0932	0.107	0.125
in acetonitrile	0.0308	0.0353	0.0393	0.0453	0.0508	0.0576	0.0667	0.078	0.0887	0.109
in ethyl acetate	0.0157	0.0179	0.0207	0.0234	0.0275	0.031	0.0363	0.0414	0.0482	0.0569
in isobutyl acetate	0.00929	0.011	0.0122	0.0143	0.0165	0.0189	0.022	0.0248	0.0283	0.0324
in isopentyl acetate	0.00727	0.00841	0.00971	0.011	0.0129	0.0147	0.0168	0.0196	0.0214	0.0251
in isopropyl acetate	0.0101	0.0126	0.014	0.0164	0.0191	0.022	0.0255	0.0295	0.0335	0.0395
in methyl acetate	0.0236	0.0281	0.031	0.0368	0.042	0.0496	0.0582	0.0687	0.0806	0.0965
in n-butyl acetate	0.00989	0.0115	0.0129	0.0149	0.0172	0.0196	0.0226	0.0258	0.0285	0.0339
in n-pentyl acetate	0.00784	0.00916	0.0105	0.012	0.0137	0.0158	0.018	0.0205	0.0231	0.0264
in n-propyl acetate	0.012	0.0135	0.0159	0.0179	0.021	0.0244	0.0277	0.033	0.0388	0.0435
